From patent US20250176550A1, “HERBICIDE COMPOSITION OF URACIL COMPOUND CONTAINING CARBOXYLATE FRAGMENT AND THE USE THEREOF” (Jiangsu Flag Chemical Industry Co., Ltd., priority 2022, published 2025)

What was measured:
Assay in all cases: Indoor virulence and combined effect, greenhouse pot test, post-emergence stem and leaf spray, fresh weight inhibition
Type in all cases: in vivo
echinochloa crusgalli = settings: for Fresh weight inhibition rate %, A single agent: post-emergence, 21 days after treatment; for Fresh weight suppression rate %, A single dose: Table 22
Summary of the method: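 Greenhouse potted weeds sprayed post-emergence on stem and leaf at 3–4 leaf stage, with A and B alone or mixed; acetone solutions diluted in 0.1 wt% Tween-80, solvent-emulsifier water as blank.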

lolium multiflorum = tested on: lolium multiflorum
Summary of the method: (§1)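 Weeds in greenhouse pots received a spray-tower treatment, either post-emergence at the 3–4 leaf (grasses) or 4–6 leaf (broadleaf) stage, or pre-emergence as a soil spray 24 h after sowing. Compounds were applied in acetone diluted with 0.1 wt% Tween-80 water, alone or mixed, in g/ha. Fresh weight inhibition was measured at 21 days, with synergy judged by Gowing expected efficacy (E−E0 >10%).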

digitaria sanguinalis = tested on: digitaria sanguinalis
Summary of the method: as §1

eleusine indica = settings: Table 30
Summary of the method: as §1

alopecurus japonicus = settings: Table 7, post-emergence, 21 days after treatment
Summary of the method: as §1

In the case of `CCOC(=O)C(C)(C)OC(=O)c1cc(-n2c(=O)cc(C(F)(F)F)n(C)c2=O)c(F)cc1Cl` [Compound A-250], the “Fresh weight inhibition rate %, A single agent” value (from here on “Fresh weight inhibition rate %”) (echinochloa crusgalli; Table 2, 15 g a.i./ha) is reported as 26.41%, the “Fresh weight inhibition rate %” value (echinochloa crusgalli; Table 2, 20 g a.i./ha) is reported as 30.73% and the “Fresh weight inhibition rate %” value (echinochloa crusgalli; Table 3, 20 g a.i./ha) is reported as 30.73%. The “Fresh weight inhibition rate %” value (echinochloa crusgalli; Table 3, 25 g a.i./ha) was 31.56%, the “Fresh weight inhibition rate %” value (echinochloa crusgalli; Table 4, 15 g a.i./ha) was 26.41% and the “Fresh weight inhibition rate %” value (echinochloa crusgalli; Table 4, 20 g a.i./ha) was 30.73%. For the same molecule, the “Fresh weight inhibition rate %” value (echinochloa crusgalli; Table 4, 25 g a.i./ha) was 31.56%, the “Fresh weight suppression rate %, A single dose” value (“Fresh weight suppression rate %” for short) (echinochloa crusgalli; A 10 g a.i./ha) was 17.77% and the “Fresh weight suppression rate %” value (echinochloa crusgalli; A 15 g a.i./ha) was 26.41%. For the same molecule, the “Fresh weight suppression rate %” value (echinochloa crusgalli; A 20 g a.i./ha) was 30.73%, the “Fresh weight suppression rate %” value (echinochloa crusgalli; A 25 g a.i./ha) was 31.56% and the “Fresh weight inhibition rate %” value (lolium multiflorum; Table 34, A 15 g a.i./ha) was 55.00%. For the same molecule, the “Fresh weight inhibition rate %” value (lolium multiflorum; Table 34, A 20 g a.i./ha) was 68.03%, the “Fresh weight inhibition rate %” value (lolium multiflorum; Table 34, A 25 g a.i./ha) was 70.36% and the “Fresh weight inhibition rate %” value (lolium multiflorum; Table 34, A 30 g a.i./ha) was 75.35%. The “Fresh weight inhibition rate %” value (lolium multiflorum; Table 38, A 10 g a.i./ha) was 43.34%, the “Fresh weight inhibition rate %” value (lolium multiflorum; Table 38, A 15 g a.i./ha) was 55.00% and the “Fresh weight inhibition rate %” value (lolium multiflorum; Table 38, A 20 g a.i./ha) was 68.03%. The “Fresh weight inhibition rate %” value (digitaria sanguinalis; Table 29, A 15 g a.i./ha) was 54.46%, the “Fresh weight inhibition rate %” value (digitaria sanguinalis; Table 29, A 20 g a.i./ha) was 61.09% and the “Fresh weight inhibition rate %” value (digitaria sanguinalis; Table 29, A 25 g a.i./ha) was 65.86%. The “Fresh weight inhibition rate %” value (digitaria sanguinalis; Table 29, A 30 g a.i./ha) was 71.11%, the “Fresh weight inhibition rate %” value (digitaria sanguinalis; Table 31, A 15 g a.i./ha) was 54.46% and the “Fresh weight inhibition rate %” value (digitaria sanguinalis; Table 31, A 20 g a.i./ha) was 61.09%. For the same molecule, the “Fresh weight inhibition rate %” value (digitaria sanguinalis; Table 31, A 25 g a.i./ha) was 65.86%, the “Fresh weight inhibition rate %” value (eleusine indica; A 10 g a.i./ha) was 43.34% and the “Fresh weight inhibition rate %” value (eleusine indica; A 15 g a.i./ha) was 55.00%. The “Fresh weight inhibition rate %” value (eleusine indica; A 20 g a.i./ha) was 68.03%, the “Fresh weight inhibition rate %” value (eleusine indica; A 25 g a.i./ha) was 70.36% and the “Fresh weight inhibition rate %” value (eleusine indica; A 30 g a.i./ha) was 75.35%. The “Fresh weight inhibition rate %” value (alopecurus japonicus; 15 g a.i./ha) was 39%, the “Fresh weight inhibition rate %” value (alopecurus japonicus; 20 g a.i./ha) was 49.17% and the “Fresh weight inhibition rate %” value (alopecurus japonicus; 25 g a.i./ha) was 55.39%.
